Experimental data reported in patent US10195226B2, “Medicinal carbohydrates for treatment of respiratory conditions” (Australian Biomedical Company Pty Ltd., priority 2009, dated 2019).
Where two headings read alike, the source gives them in different places.

Tests used:
[1] = test system: Balb-C mice; experiment: Tolerance study on Balb-C mice; assay type: in vivo
Excerpt: (§1) Compounds of Formula (1) and/or (2) have been tested for safety by the applicants. For example, Compounds (1) and (2) were used in a tolerance and subchronic toxicity study on Balb-C mice (AEC Approval Code: BAM/B/2005/16).

[2] = test system: male Hartley guinea pigs; experiment: Guinea pig cough model (neuraminidase aerosol, citric acid challenge); assay type: in vivo; details: for Restoration of respiratory tract damages caused by neuraminidase: guinea pig cough model, oral dose of 500 mg/kg/day×3 days, result in words, 500 mg/kg/day
Procedure: A guinea pig cough model was also established by the applicants. Compounds (1) and (2) were tested in this model. […] These in vivo results are in line with the in vitro data. Thus, both the efficacy and safety data support compounds of Formula (1) and/or (2) and particularly compounds (1) and (2) may be useful for medicinal applications.
Male guinea pigs were housed in pens and have access to water and food ad libitum. This study was approved by Bio21 Institute Animal Ethics Committee.
Twenty four Conscious male Hartley guinea pigs (500˜550 g) were divided into A, B, C three groups (8 animals for each group), and pretreated with either 5 units/ml solution of neuraminidase (Sigma N2133, lyophilized powder, Type X, 150˜400 units/mg protein) in water (group B and C) or saline alone (Group A) via an aerosol for 5 minutes on day one. Then, on day one, two and three, the guinea pigs were either orally administered with 500 mg/kg of compound (1) (Group C), or water alone (Group A and B). On day four, all the animals were challenged with 0.5M citric acid solution (nebulised, 10 minutes exposure). The cough frequency, times to the 1st, 2nd and third cough, and times to the 1st nose rubs were then recorded over a period of 15 minutes.

[3] = test system: Normal Human Bronchial/Tracheal Epithelial Cells (NHBE); details: NHBE pretreated with neuraminidase, 24 h, control (treated with neuraminidase) = 100%, mean ± SEM, n = 3
[4] = test system: Small Airway Epithelial Cells (SAEC); details: SAEC pretreated with neuraminidase, 24 h, control (treated with neuraminidase) = 100%, mean ± SEM, n = 3
[5] = test system: mucocilliary transport; details: reference [6]; result in words; cited from earlier work
[6] = test system: rabbits; details: pre-treatment with repeated administrations (inhalations), reference [7]; cited from earlier work
[7] = mammals, reference [8]; cited from earlier work
[8] = test system: Balb-C mice; experiment: Subchronic toxicity study on Balb-C mice; assay type: in vivo
Excerpt: as §1

[9] = guinea pigs, neuraminidase aerosol day one, 500 mg/kg oral on days one to three, 0.5M citric acid challenge day four

## CC(=O)N[C@H]1[C@H]([C@H](O)[C@H](O)CO)OC(O)(C(=O)[O-])C[C@@H]1O.[Na+] (stereo partly shown) [Compound (2), N-acetylneuraminic acid sodium salt]
[1]; 2 g/Kg intraperitoneal dose
  Tolerance: well tolerated
[1]; 5 g/Kg oral dose
  Tolerance: well tolerated
[2]; sodium salt
  Restoration of respiratory tract damages caused by neuraminidase: could restore the respiratory tract damages caused by neuraminidase

## CC(=O)NC1C(O)OC(CO)C(O)C1O (stereo not shown) [Compound (9)]
[3]; compound 0.19 μg/ml
  Cell viability: 107% ± 3.41
[3]; compound 0.77 μg/ml
  Cell viability: 107% ± 1.26
[3]; compound 3.1 μg/ml
  Cell viability: 108% ± 3.24
[3]; compound 12.5 μg/ml
  Cell viability: 106% ± 3.49
[3]; compound 50 μg/ml
  Cell viability: 106% ± 2.52
[3]; high concentration 78.1 μg/ml
  Cell viability: 125% ± 3.23
[3]; high concentration 312.5 μg/ml
  Cell viability: 95% ± 2.85
[3]; high concentration 1.25 mg/ml
  Cell viability: 96% ± 2.42
[3]; high concentration 5 mg/ml
  Cell viability: 76% ± 2.71
[4]; compound 0.19 μg/ml
  Cell viability: 121% ± 2.42
[4]; compound 0.77 μg/ml
  Cell viability: 120% ± 3.14
[4]; compound 3.1 μg/ml
  Cell viability: 115% ± 3.17
[4]; compound 12.5 μg/ml
  Cell viability: 119% ± 3.04
[4]; compound 50 μg/ml
  Cell viability: 122% ± 3.21
[4]; high concentration 78.1 μg/ml
  Cell viability: 100% ± 2.92
[4]; high concentration 312.5 μg/ml
  Cell viability: 90% ± 3.28
[4]; high concentration 1.25 mg/ml
  Cell viability: 96% ± 3.16
[4]; high concentration 5 mg/ml
  Cell viability: 83% ± 2.85

## CC(=O)NC1C(OC(C)=O)OC(COC(C)=O)C(OC(C)=O)C1OC(C)=O (stereo not shown) [Compound (7)]
[3]; compound 0.003 μg/ml
  Cell viability: 85% ± 2.71
[3]; compound 0.012 μg/ml
  Cell viability: 103% ± 4.70
[3]; compound 0.05 μg/ml
  Cell viability: 104% ± 5.85
[3]; compound 0.19 μg/ml
  Cell viability: 100% ± 0.66
[3]; compound 0.77 μg/ml
  Cell viability: 99% ± 1.93
[3]; compound 3.1 μg/ml
  Cell viability: 98% ± 5.65
[3]; compound 12.5 μg/ml
  Cell viability: 117% ± 4.12
[3]; compound 50 μg/ml
  Cell viability: 54% ± 0.98
[4]; compound 0.003 μg/ml
  Cell viability: 102% ± 0.62
[4]; compound 0.012 μg/ml
  Cell viability: 105% ± 1.83
[4]; compound 0.05 μg/ml
  Cell viability: 128% ± 1.98
[4]; compound 0.19 μg/ml
  Cell viability: 105% ± 2.01
[4]; compound 0.77 μg/ml
  Cell viability: 112% ± 1.29
[4]; compound 3.1 μg/ml
  Cell viability: 103% ± 1.14
[4]; compound 12.5 μg/ml
  Cell viability: 134% ± 0.81
[4]; compound 50 μg/ml
  Cell viability: 73% ± 2.18

## CC(=O)N[C@H]1[C@H]([C@H](O)[C@H](O)CO)OC(O)(C(=O)O)C[C@@H]1O (stereo partly shown) [N-acetylneuraminic acid]
[5]
  Protection against the impairment of the mucocilliary transport: dose-dependently protected
[6]
  Prevention of inflammatory changes caused by long term exposure of SO2: remarkably prevented the inflammatory changes

## OC[C@H]1O[C@@H](O[C@H]2[C@H](O)[C@@H](O)C(O)O[C@@H]2CO)[C@H](O)[C@@H](O)[C@H]1O (stereo partly shown) [lactose, reference compound]
[5]
  Protection against the impairment of the mucocilliary transport: not

## CC(=O)NC1C(O)OC(COC(C)=O)C(OC(C)=O)C1OC(C)=O (stereo not shown) [Compound (8)]
[3]; compound 0.003 μg/ml
  Cell viability: 129% ± 1.70
[3]; compound 0.012 μg/ml
  Cell viability: 118% ± 3.19
[3]; compound 0.05 μg/ml
  Cell viability: 93% ± 1.38
[3]; compound 0.19 μg/ml
  Cell viability: 96% ± 1.21
[3]; compound 0.77 μg/ml
  Cell viability: 133% ± 2.09
[3]; compound 3.1 μg/ml
  Cell viability: 111% ± 2.44
[3]; compound 12.5 μg/ml
  Cell viability: 81% ± 0.60
[3]; compound 50 μg/ml
  Cell viability: 42% ± 1.55
[4]; compound 0.003 μg/ml
  Cell viability: 125% ± 8.51
[4]; compound 0.05 μg/ml
  Cell viability: 109% ± 1.16
[4]; compound 0.19 μg/ml
  Cell viability: 115% ± 3.52
[4]; compound 0.77 μg/ml
  Cell viability: 103% ± 3.21
[4]; compound 3.1 μg/ml
  Cell viability: 109% ± 2.79
[4]; compound 12.5 μg/ml
  Cell viability: 104% ± 1.95
[4]; compound 50 μg/ml
  Cell viability: 91% ± 3.36

## CC(=O)N[C@@H]1C(O)O[C@H](CO)[C@@H](O)[C@@H]1O (stereo partly drawn) [Compound (1), N-acetyl-D-mannosamine]
[7]
  Metabolism after oral administration: rapidly metabolized into glucose
[1]; 2 g/Kg intraperitoneal dose
  Tolerance: well tolerated
[1]; 5 g/Kg oral dose
  Tolerance: well tolerated
[8]; 0.5 g/Kg/day×30 days intraperitoneal dose
  Subchronic toxicity: non-toxic
[8]; 1 g/Kg/day×30 days oral dose
  Subchronic toxicity: non-toxic
[2]
  Restoration of respiratory tract damages caused by neuraminidase: could restore the respiratory tract damages caused by neuraminidase
[2]; listed as compound (1)
  Restoration of respiratory tract damages caused by neuraminidase: helped to restore the damages caused by neuraminidase
[2]; [9]
  Cough frequency (in 15 minutes): 16 ± 2.2
  Time (second) to the 1st nose rubs: 49 ± 6.5 s
  Time (seconds) to the 1st cough: 85 ± 15 s
  Time (seconds) to the 2nd cough: 137 ± 31 s
  Time (seconds) to the 3rd cough: 220 ± 10 s
